Measured values as given in US11649237B2, “Substituted imidazo[1,5-a]pyrazines for IRE1 inhibition” (Optikira LLC, priority 2017, dated 2023).

Each molecule was assayed on XBP-1 splicing in ARPE-19 cells or apoptosis of INS-1 cells expressing mIRE-1 (assay: Cellular assay (XBP1 splicing assay or apoptosis assay)). Conditions: data are for the XBP1 splicing assay or the apoptosis assay (not specified per compound).
Format: cell-based
Method: ARPE-19 cells stably expressing XBP-1 (a.a. 1-376) with nano-luciferase gene sequence linked so it is in frame when XBP-1 is spliced, were cultured in F12 media, 10% FBS, 0.044% sodium bicarbonate, 150 μg/ml hygromycin B and seeded for assays at 5,000 cells in 384 well plates in culture media without hygromycin B and incubated at 37° C./5% CO2. […] After further incubation of 30 minutes thapsigargin was added (final concentration 150 nM) and then another 4 hour incubation. A NanoLuc luciferase assay (Promega) was used according to the manufacturer's instructions to detect the luciferase and luminescence measured on a luminometer (EnVision, PerkinElmer).
Doxycycline (final concentration 100 nM) was added and plates incubated for a further 72 hours. To determine the proportion of apoptotic cells Hoechst 33342 (final concentration 10 μg/mL) was added, then after 30 minutes incubation cells imaged and analyzed on an InCell high content imager.

SMILES | IC50
CNC1CC=C(c2cnc(N)c3c(-c4ccc(NC(=O)Nc5cncc(OC)c5)cc4F)nc(C(C)C)n23)CC1 (stereo not drawn) [Example 148, 1-(4-(8-amino-3-isopropyl-5-(4-(methylamino)cyclohex-1-en-1-yl)imidazo[1,5-a]pyrazin-1-yl)-3-fluorophenyl)-3-(5-methoxypyridin-3-yl)urea] | 1.3 µM
CNC1CC=C(c2cnc(N)c3c(-c4ccc(NC(=O)Nc5cncc(F)c5)cc4F)nc(C(C)C)n23)CC1 (stereo not drawn) [Example 149, 1-(4-(8-amino-3-isopropyl-5-(4-(methylamino)cyclohex-1-en-1-yl)imidazo[1,5-a]pyrazin-1-yl)-3-fluorophenyl)-3-(5-fluoropyridin-3-yl)urea] | 0.78 µM
CNC1CC=C(c2cnc(N)c3c(-c4ccc(NC(=O)Nc5ccsc5)c5ccccc45)nc(C(C)C)n23)CC1 (stereo not drawn) [Example 150, 1-(4-(8-amino-3-isopropyl-5-(4-(methylamino)cyclohex-1-en-1-yl)imidazo[1,5-a]pyrazin-1-yl)naphthalen-1-yl)-3-(thiophen-3-yl)urea] | 0.09 µM
CNC1CC=C(c2cnc(N)c3c(-c4ccc(NC(=O)Nc5cc(F)cc(F)c5)c5ccccc45)nc(C(C)C)n23)CC1 (stereo not drawn) [Example 151, 1-(4-(8-amino-3-isopropyl-5-(4-(methylamino)cyclohex-1-en-1-yl)imidazo[1,5-a]pyrazin-1-yl)naphthalen-1-yl)-3-(3,5-difluorophenyl)urea] | 0.06 µM
CNC1CC=C(c2cnc(N)c3c(-c4ccc(NC(=O)Nc5ccccc5F)c5ccccc45)nc(C(C)C)n23)CC1 (stereo not drawn) [Example 152, 1-(4-(8-amino-3-isopropyl-5-(4-(methylamino)cyclohex-1-en-1-yl)imidazo[1,5-a]pyrazin-1-yl)naphthalen-1-yl)-3-(2-fluorophenyl)urea] | 0.1 µM
CNC1CC=C(c2cncc3c(-c4ccc(NC(=O)Nc5ccccc5)c5ccccc45)nc(C(C)C)n23)CC1 (stereo not drawn) [Example 155, 1-(4-(3-isopropyl-5-(4-(methylamino)cyclohex-1-en-1-yl)imidazo[1,5-a]pyrazin-1-yl)naphthalen-1-yl)-3-phenylurea] | 0.64 µM
CNC1CC=C(c2cnc(N)c3c(-c4ccc(Cc5nc6cccc(C)c6[nH]5)c5ccccc45)nc(C(C)C)n23)CC1 (stereo not drawn) [Example 156, 3-Isopropyl-1-(4-((7-methyl-1H-benzo[d]imidazol-2-yl)methyl)naphthalen-1-yl)-5-(4-(methylamino)cyclohex-1-en-1-yl)imidazo[1,5-a]pyrazin-8-amine] | 0.016 µM
CNC1CC=C(c2cnc(N)c3c(-c4ccc(Cc5ncc(-c6ccccc6)[nH]5)c5ccccc45)nc(C(C)C)n23)CC1 (stereo not drawn) [Example 168, 3-Isopropyl-5-(4-(methylamino)cyclohex-1-en-1-yl)-1-(4-((5-phenyl-1H-imidazol-2-yl)methyl)naphthalen-1-yl)imidazo[1,5-a]pyrazin-8-amine] | 0.096 µM
CNC1CC=C(c2cnc(N)c3c(-c4ccc(NS(=O)(=O)Cc5ccccc5Cl)c(F)c4)nc(C(C)C)n23)CC1 (stereo not drawn) [Example 169, N-(4-(8-Amino-3-isopropyl-5-(4-(methylamino)cyclohex-1-en-1-yl)imidazo[1,5-a]pyrazin-1-yl)-2-fluorophenyl)-1-(2-chlorophenyl)methanesulfonamide] | 0.031 µM
CNC1CC=C(c2cnc(N)c3c(-c4ccc(NS(=O)(=O)c5cc(C)ccc5F)c5ccccc45)nc(C(C)C)n23)CC1 (stereo not drawn) [Example 185, N-(4-(8-amino-3-isopropyl-5-(4-(methylamino)cyclohex-1-en-1-yl)imidazo[1,5-a]pyrazin-1-yl)naphthalen-1-yl)-2-fluoro-5-methylbenzenesulfonamide] | 0.21 µM
CNC1CC=C(c2cnc(N)c3c(-c4ccc(NS(=O)(=O)c5cc(Cl)ccc5Cl)cc4F)nc(C(C)C)n23)CC1 (stereo not drawn) [Example 195, N-(4-(8-amino-3-isopropyl-5-(4-(methylamino)cyclohex-1-en-1-yl)imidazo[1,5-a]pyrazin-1-yl)-3-fluorophenyl)-2,5-dichlorobenzenesulfonamide] | 0.066 µM
CNC1CC=C(c2cnc(N)c3c(-c4ccc(NS(=O)(=O)c5cc(C)ccc5F)c(F)c4)nc(C(C)C)n23)CC1 (stereo not drawn) [Example 218, N-(4-{8-amino-5-[4-(methylamino)cyclohex-1-en-1-yl]-3-(propan-2-yl)imidazo[1,5-a]pyrazin-1-yl}-2-fluorophenyl)-2-fluoro-5-methylbenzene-1-sulfonamide] | 0.025 µM
CNC1CC=C(c2cnc(N)c3c(-c4ccc(NS(=O)(=O)c5cc(C)ccc5Cl)c5ccccc45)nc(C(C)C)n23)CC1 (stereo not drawn) [Example 219, N-(4-{8-amino-5-[4-(methylamino)cyclohex-1-en-1-yl]-3-(propan-2-yl)imidazo[1,5-a]pyrazin-1-yl}naphthalen-1-yl)-2-chloro-5-methylbenzene-1-sulfonamide] | 0.02 µM
CC(C)c1nc(-c2ccc(NS(=O)(=O)Cc3ccccc3Cl)c(F)c2)c2c(N)ncc(C3=CCC(NCCF)CC3)n12 (stereo not drawn) [Example 220, N-(4-(8-amino-5-(4-((2-fluoroethyl)amino)cyclohex-1-en-1-yl)-3-isopropylimidazo[1,5-a]pyrazin-1-yl)-2-fluorophenyl)-1-(2-chlorophenyl) methanesulfonamide] | 0.05 µM
CC(C)c1nc(-c2ccc(NS(=O)(=O)Cc3ccccc3Cl)c(F)c2)c2c(N)ncc(C3=CCC(O)CC3)n12 (stereo not drawn) [Example 224, N-(4-(8-amino-5-(4-hydroxycyclohex-1-en-1-yl)-3-isopropylimidazo[1,5-a]pyrazin-1-yl)-2-fluorophenyl)-1-(2-chlorophenyl)methanesulfonamide] | 0.042 µM
CC(C)c1nc(-c2ccc(NS(=O)(=O)c3ccccc3Cl)c(F)c2)c2c(N)ncc(C3=CCC(O)CC3)n12 (stereo not drawn) [Example 225, N-(4-(8-amino-5-(4-hydroxycyclohex-1-en-1-yl)-3-isopropylimidazo[1,5-a]pyrazin-1-yl)-2-fluorophenyl)-2-chlorobenzenesulfonamide] | 0.25 µM
CC(C)c1nc(-c2ccc(NS(=O)(=O)c3ccccc3Cl)c(F)c2)c2c(N)ncc(C3=CCC(NCC(F)F)CC3)n12 (stereo not drawn) [Example 226, N-(4-(8-amino-5-(4-((2,2-difluoroethyl)amino)cyclohex-1-en-1-yl)-3-isopropylimidazo[1,5-a]pyrazin-1-yl)-2-fluorophenyl)-2-chlorobenzenesulfonamide] | 0.33 µM
CC(C)c1nc(-c2ccc(NS(=O)(=O)Cc3ccccc3Cl)c(F)c2)c2c(N)ncc(C3=CCC(NC4COC4)CC3)n12 (stereo not drawn) [Example 227, N-(4-(8-amino-3-isopropyl-5-(4-(oxetan-3-ylamino)cyclohex-1-en-1-yl)imidazo[1,5-a]pyrazin-1-yl)-2-fluorophenyl)-1-(2-chlorophenyl)methanesulfonamide] | 0.087 µM
CC(C)c1nc(-c2cc(F)c(NS(=O)(=O)c3ccccc3Cl)cc2F)c2c(N)ncc(C3=CCC(NCCF)CC3)n12 (stereo not drawn) [Example 228, N-(4-(8-amino-5-(4-((2-fluoroethyl)amino)cyclohex-1-en-1-yl)-3-isopropylimidazo[1,5-a]pyrazin-1-yl)-2,5-difluorophenyl)-2-chlorobenzenesulfonamide] | 0.01 µM
CC(C)c1nc(-c2ccc(NS(=O)(=O)c3ccccc3F)c(F)c2)c2c(N)ncc(C3=CCC(NCCF)CC3)n12 (stereo not drawn) [Example 229, N-(4-(8-amino-5-(4-((2-fluoroethyl)amino)cyclohex-1-en-1-yl)-3-isopropylimidazo[1,5-a]pyrazin-1-yl)-2-fluorophenyl)-2-fluorobenzenesulfonamide] | 0.025 µM
CC(C)c1nc(-c2ccc(NS(=O)(=O)c3ccccc3Cl)c(F)c2)c2c(N)ncc(C3=CCC(N(C)CCF)CC3)n12 (stereo not drawn) [Example 230, N-(4-(8-amino-5-(4-((2-fluoroethyl)(methyl)amino)cyclohex-1-en-1-yl)-3-isopropylimidazo[1,5-a]pyrazin-1-yl)-2-fluorophenyl)-2-chlorobenzenesulfonamide] | 0.019 µM
Cc1nc(-c2ccc(NS(=O)(=O)c3ccccc3Cl)c(F)c2)c2c(N)ncc(C3=CCC(NCCF)CC3)n12 (stereo not drawn) [Example 231, N-(4-(8-amino-5-(4-((2-fluoroethyl)amino)cyclohex-1-en-1-yl)-3-methylimidazo[1,5-a]pyrazin-1-yl)-2-fluorophenyl)-2-chlorobenzenesulfonamide] | 0.019 µM
CC(C)c1nc(-c2ccc(NS(=O)(=O)c3ccccc3Cl)c(F)c2)c2c(N)ncc(C3=CCC(NC4COC4)CC3)n12 (stereo not drawn) [Example 232, N-(4-(8-amino-3-isopropyl-5-(4-(oxetan-3-ylamino)cyclohex-1-en-1-yl)imidazo[1,5-a]pyrazin-1-yl)-2-fluorophenyl)-2-chlorobenzenesulfonamide] | 0.2 µM

What follows are molecules tested against IRE1α RNase (Homo sapiens (Human), UniProt O75460) (assay: Biochemical assay, inhibition of RNase activity of IRE1α). Conditions: not given.
IRE1α RNase, sequence (O75460 468-977): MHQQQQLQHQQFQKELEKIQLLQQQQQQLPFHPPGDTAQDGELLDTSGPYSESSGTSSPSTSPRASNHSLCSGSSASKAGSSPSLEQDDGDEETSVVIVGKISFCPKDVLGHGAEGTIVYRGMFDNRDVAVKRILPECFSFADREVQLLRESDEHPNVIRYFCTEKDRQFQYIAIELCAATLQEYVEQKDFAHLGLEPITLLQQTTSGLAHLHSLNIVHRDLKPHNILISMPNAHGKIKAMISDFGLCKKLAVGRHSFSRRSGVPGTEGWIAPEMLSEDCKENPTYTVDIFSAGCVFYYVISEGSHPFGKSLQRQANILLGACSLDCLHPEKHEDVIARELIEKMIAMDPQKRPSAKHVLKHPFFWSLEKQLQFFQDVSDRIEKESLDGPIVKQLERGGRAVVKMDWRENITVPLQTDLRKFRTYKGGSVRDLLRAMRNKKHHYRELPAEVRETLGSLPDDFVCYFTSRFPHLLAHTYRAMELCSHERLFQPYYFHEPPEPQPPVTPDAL

IC50 | SMILES
0.213 µM | CC(C)c1nc(-c2ccc(NS(=O)(=O)c3ccccc3Cl)c(F)c2)c2c(N)ncc(C3=CCC(NCC(F)F)CC3)n12 (stereo not drawn) [Example 226, N-(4-(8-amino-5-(4-((2,2-difluoroethyl)amino)cyclohex-1-en-1-yl)-3-isopropylimidazo[1,5-a]pyrazin-1-yl)-2-fluorophenyl)-2-chlorobenzenesulfonamide]
0.006 µM | CC(C)c1nc(-c2cc(F)c(NS(=O)(=O)c3ccccc3Cl)cc2F)c2c(N)ncc(C3=CCC(NCCF)CC3)n12 (stereo not drawn) [Example 228, N-(4-(8-amino-5-(4-((2-fluoroethyl)amino)cyclohex-1-en-1-yl)-3-isopropylimidazo[1,5-a]pyrazin-1-yl)-2,5-difluorophenyl)-2-chlorobenzenesulfonamide]
0.025 µM | CC(C)c1nc(-c2ccc(NS(=O)(=O)c3ccccc3F)c(F)c2)c2c(N)ncc(C3=CCC(NCCF)CC3)n12 (stereo not drawn) [Example 229, N-(4-(8-amino-5-(4-((2-fluoroethyl)amino)cyclohex-1-en-1-yl)-3-isopropylimidazo[1,5-a]pyrazin-1-yl)-2-fluorophenyl)-2-fluorobenzenesulfonamide]
0.06 µM | CC(C)c1nc(-c2ccc(NS(=O)(=O)c3ccccc3Cl)c(F)c2)c2c(N)ncc(C3=CCC(NC4COC4)CC3)n12 (stereo not drawn) [Example 232, N-(4-(8-amino-3-isopropyl-5-(4-(oxetan-3-ylamino)cyclohex-1-en-1-yl)imidazo[1,5-a]pyrazin-1-yl)-2-fluorophenyl)-2-chlorobenzenesulfonamide]
